Peptide text beside a SMILES is read from it. * marks the point of attachment. Cbz = O=C(OCc1ccccc1)*
How the values were obtained:
IMR90 cells [1] = assay: Secondary screening: senolytic activity, young vs senescent IMR90 cells, crystal violet; assay type: cell-based, human; conditions: young vs Ras-induced senescent IMR90 cells; 5 μM and 10 μM; 72 hours; criterion of positivity 1.14 or more
Protocol: In the secondary screening, the agent sensitivity of young IMR90 cells and senescent IMR90 cells was compared. The senescent IMR90 cells were prepared by inducing an oncogenic Ras mutation. The young cells and the senescent cells were each seeded in a 96-well plate, and two days later, the candidate drugs obtained from the primary screening were treated at two concentrations of 5 μM and 10 μM. Surviving cells after 72 hours were fixed with formalin and stained with crystal violet. After that, crystal violet in each well was extracted with 2% Triton X100 and quantified (FIG. 31-1 and FIG. 31-2). Young cells and senescent cells were each treated with a solvent (DMSO), and the resulting cells were used as a negative control, and the survival rate compared to the negative control was calculated by the following expression. Furthermore, the agent sensitivity of the young cells and the senescent cells was compared and evaluated as senolytic activity (young cell viability/senescent cell viability). The criterion of positivity was a senolytic activity of 1.14 or more.
Viability(%)=(Sample/negative subject)×100
Senolytic activity=young cell viability/senescent cell viability

HIF-2α = HIF-2α protein (Western blot) and mRNA expression in IMR90 cells; assay type: cell-based, human
Description: As a result, it was observed that the HIF-2α protein decreased in the nutlin 3b-treated group and the BI-D1870-treated group (upper diagram and lower diagram in FIG. 22).
An oncogenic Ras was introduced into young cells (within 1 month of continuous culture) of IMR90 cells to induce senescent cells (OIS). […] It is known that ubiquitination is induced by phosphorylation in the vicinity of a ubiquitination site (Hagai et al., 2012). The consensus sequences (K/R-K/R-x-x-S/T) for phosphorylation by Chk1 located at the N-terminus of HIF-2α were conserved, and these were named Motif1 (including Ser12 residues) and Motif2 (including Ser19 residues) (FIG. 40, SEQ ID NOs: 77 to 81).

IMR90 cells [2] = assay: Senolysis / cell death of young and Ras-induced senescent IMR90 cells; assay type: cell-based, human
Description: Ras gene with oncogenic mutation was introduced into young cells (within 1 month of continuous culture) of IMR90 cells by retroviral infection to acquire senescent cells. […] The control received only DMSO treatment. Representative images of cells observed under a microscope are shown (FIG. 11).
An oncogenic mutated Ras gene was introduced into young cells (within 1 month of continuous culture) of IMR90 cells by retroviral infection to acquire stress-induced senescent cells. The young cells and the senescent cells were both treated with different concentrations of the RSK kinase inhibitor BI-D1870 for 96 hours to evaluate cell death.
An oncogenic mutated Ras gene was introduced into young cells (within 1 month of continuous culture) of IMR90 cells by retroviral infection to acquire stress-induced senescent cells. The young cells and the senescent cells of IMR90 were both transfected with an RSK1 siRNA (two types of siRNA #1 (SEQ ID NO: 7) or #2 (SEQ ID NO: 8) having different target sequences) or a control to knock down RSK1. Representative images of cells observed under a microscope are shown (upper diagram in FIG. 20).
An oncogenic Ras was introduced into young cells (within 1 month of continuous culture) of IMR90 cells to induce senescent cells (OIS). The young cells and the senescent cells of IMR90 were transfected with two HIF-2α-specific siRNAs (SEQ ID NO: 9 and SEQ ID NO: 10) having different target sequences to knock down HIF-2α.
An oncogenic Ras was introduced into young cells (within 1 month of continuous culture) of IMR90 cells to induce senescent cells (OIS). The young cells and the senescent cells of IMR90 were transfected with a BIM-specific siRNA to knock down BIM.
An oncogenic Ras was introduced into young cells (within 1 month of continuous culture) of IMR90 cells to induce senescent cells (OIS). In the young cells and the senescent cells of IMR90, HIF-2α alone or both HIF-2α and BIM were knocked down by using their respective specific siRNAs (SEQ ID NO: 9, SEQ ID NO: 10), and cell death was confirmed (FIG. 28).
The latter information consists of 12,655 ChIP datasets from 903 antigens (transcription factors and epigenetic regulators).

PGAM-Chk1 kinase binding = conditions: cancer cells; Mikawa et al., 2020; cited from earlier work
human fibroblasts = assay: Lactate treatment of human fibroblasts; assay type: cell-based
Protocol: In order to explore the physiological significance of enhanced glycolysis in senescence, a conditioned medium consisting of senescent cells and non-senescent cells was prepared and added to human fibroblasts at the early passage. PGAM-Chk1 interaction was potentiated by culture supernatant from the senescent cells, but not potentiated in the control (FIG. 44). It was considered from this that a component potentiating the PGAM-Chk1 interaction was included in the culture supernatant from the senescent cells. Lactate was considered to be a candidate for such a component, and human fibroblasts were treated with lactate. […] GPR81 signaling is known to be partially involved in oncogenic modules including the Ras pathway (Ohno et al., 2018). In senescent cells or lactate-treated cells, it was observed that RSK1 kinase, which is downstream of the Ras pathway, was activated, accompanied by phosphorylation of Ser280 of Chk1 (Li et al., 2012), which is a known target of RSK (FIG. 49).

[3] = human fibroblasts treated with lactate

Row | Molecule | senolytic activity (young cell viability/senescent cell viability) (IMR90 cells [1]) | other results
1 | CN(C)C1CCN(C(=O)c2ccc(NC(=O)Nc3ccc(-c4nc(N5CCOCC5)nc(N5CCOCC5)n4)cc3)cc2)CC1 [PF-05212384] | have senolytic activity | –
2 | COc1ccc(-c2ccc3c(N4CCOCC4)nc(N4C[C@@H](C)O[C@@H](C)C4)nc3n2)cc1CO [KU-0063794] | have senolytic activity | –
3 | Cc1ccc2nc(NCCN)c3ncc(C)n3c2c1 [BMS-345541] | have senolytic activity | –
4 | Cc1ccc(C(=O)Nc2cccc(C(F)(F)F)c2)cc1Nc1nc(-c2cccnc2)nc2c1cnn2C [NVP-BHG712] | have senolytic activity | –
5 | CC(C)c1ccccc1Cc1cc(C(=O)Nc2ccc(S(=O)(=O)c3ccccc3C(C)(C)C)cc2)c(O)c(O)c1O [TW-37] | have senolytic activity | –
6 | C[S+]([O-])c1ccc(-c2nc(-c3ccncc3)c(-c3ccc(F)cc3)[nH]2)cc1 (stereo not drawn) [SB203580] | have senolytic activity | –
7 | CC(C)CCN1c2nc(Nc3cc(F)c(O)c(F)c3)ncc2N(C)C(=O)C1C (stereo not drawn) [BI-D1870] | – | HIF-2α protein (HIF-2α; young and senescent cells, different concentrations for 96 hours): decreased; senolytic effect (cell death) (IMR90 cells [2]; young and senescent IMR90 cells, 96 hours, 10 μM or 20 μM): remarkable senolytic effect; PGAM-Chk1 kinase binding (PGAM-Chk1 kinase binding): inhibited; glycolytic metabolism (PGAM-Chk1 kinase binding): decreased
8 | CC[C@H](C)C(=O)O[C@H]1CCC=C2C=C[C@H](C)[C@H](CC[C@@H]3C[C@@H](O)CC(=O)O3)[C@H]21 [Mevastatin] | have senolytic activity | –
9 | O=C(O)c1ccc2c(c1)nc(Nc1cccc(Cl)c1)c1ccncc12 [CX-4945] | have senolytic activity | –
10 | COc1ccc(-c2ccc3c(N4CCOC[C@@H]4C)nc(N4CCOC[C@@H]4C)nc3n2)cc1CO [AZD8055] | have senolytic activity | –
11 | COC(=O)c1ccc2c(c1)NC(=O)/C2=C(\Nc1ccc(N(C)C(=O)CN2CCN(C)CC2)cc1)c1ccccc1 [Vargatef] | have senolytic activity | –
12 | CCOc1cc2ncc(C#N)c(Nc3ccc(OCc4ccccn4)c(Cl)c3)c2cc1NC(=O)/C=C/CN(C)C [Neratinib] | have senolytic activity | –
13 | CC(/C=C/C(=O)NO)=C\[C@@H](C)C(=O)c1ccc(N(C)C)cc1 [Trichostatin A (TSA), Trichostatin A] | have senolytic activity | –
14 | Verteporfin | have senolytic activity | –
15 | CC(C)[C@H](NC(=O)c1ccc2ccccc2n1)C(=O)N[C@@H](CC(=O)O)C(=O)COc1c(F)cccc1F [QVD-Oph] | – | viability of senescent cells under nutlin 3b treatment (IMR90 cells [2]; senescent cells, nutlin 3b plus apoptosis inhibitor): restored
16 | CC(C)C[C@@H](C=O)NC(=O)[C@H](CC(C)C)NC(=O)[C@H](CC(C)C)NC(=O)OCc1ccccc1 [MG132] (Cbz-Leu-Leu-Leu-aldehyde) | – | HIF-2α protein level under nutlin 3b treatment (HIF-2α; senescent (OIS) IMR90 cells treated with nutlin 3b plus proteasome inhibitor): remarkably restored
17 | Cc1ccc(-n2nc(C(C)(C)C)cc2NC(=O)Nc2ccc(OCCN3CCOCC3)c3ccccc23)cc1 [Doramapimod (BIRB 796), Doramapimod] | have senolytic activity | –
18 | CC(O)C(=O)O (stereo not drawn) [lactate] | – | SASP expression (human fibroblasts; [3]): stimulated; accumulation of HIF-2α (human fibroblasts; [3]): observed in a lactate concentration-dependent manner; enhancement of PGAM-Chk1 interaction (human fibroblasts; [3]): observed in a lactate concentration-dependent manner; p21 level vs control (human fibroblasts; [3]): did not provide a difference; phosphorylation of Ser12 of HIF-2α (human fibroblasts; [3]): observed in a lactate concentration-dependent manner; RSK1 kinase activation (accompanied by phosphorylation of Ser280 of Chk1) (human fibroblasts; lactate-treated cells): activated
19 | CC(C)c1cc(-c2ccc(F)c3ccccc23)nc(N)n1 [RS-127445] | have senolytic activity | –
